In patent US11072637B2, “Walnut oligopeptide powder, preparation method and application thereof” (Sinphar Tian-Li (Hangzhou) Pharmacy Company Limited, priority 2016, dated 2021):
Values joined by “and” are separate entries in the source; they are usually repeats but may differ in a detail not shown here. Equal values may be shown once. Non-standard residues stand in square brackets, D forms with d. Residues, ends and D or L forms follow the SMILES beside them. pGlu = O=C1CC[C@@H](C(=O)O)N1; Thz = O=C(O)[C@@H]1CSCN1

Assays:
zebra fish macrophages [1] = experiment: Promotion of phagocytosis function of zebra fish macrophages (ink model); type: in vivo; settings: 200 μg/mL
Description: 2. Promotion Effect of Walnut Oligopeptide Powder on Phagocytosis Function of Zebra Fish Macrophages
Zebra fish macrophage promoting model inhibition model was built by intravenous injection of ink in 2 days (2 dpf) zebra fishes after fertilization. respectively dissolved in fish water to give the walnut oligopeptide and the positive drug pidotimod, […], and the concentration of the pidotimod is 200 […]. Meanwhile, model control group and normal control group were set, in which 30 tail zebra fishes are in each experimental group, and each group was placed in a 28 L incubator to be cultured. When processing to 3 dpf, the zebra fishes in each experiment group were subjected to neutral red staining, after dyeing for 4 hours, 10-tail zebra fishes from each experimental group were selected to be observed under microscope randomly, and photos were taken and stored; image analysis for the ink signal of the zebra fish macrophages was carried out by image processing software. The improvement effect of four test samples on phagocytosis function of the zebra fish macrophages was quantitatively evaluated.

[2] = system: central nervous system of zebra fishes; experiment: Protection of zebra fish central nervous system (mycophenolate-induced injury); type: in vivo; settings: 154 μg/mL
Description: Protection Effect of the Walnut Oligopeptide Powder on the Central Nervous Centrum of Zebra Fishes 180 wild type AB strain zebra fishes after fertilization in […] (1 dpf) were selected randomly and were arranged in six-well plate, and 30 tail zebra fishes were treated in each hole (the experiment group), and central injury of the zebra fishes was induced by the mycophenolate mophol ester. […] After the oligopeptide was subjected to co-treatment for 24 hours with the mycophenolate, the acridine orange was used for dyeing, after dyeing, 10 tail zebra fishes from each experimental group were selected randomly to photograph under fluorescence microscope and collect data, analyzing and counting the fluorescent intensity of the apoptotic cells of central nervous system (brain and spinal cord) of the zebra fishes; the protective effect of the walnut oligopeptide powder on the central nervous system of zebra fishes was evaluated according to the fluorescence intensity.

zebra fish macrophages [3] = experiment: Improvement of zebra fish macrophage inhibition (vinorelbine model); type: in vivo; settings: for number of macrophages of the zebra fish head, Mean ± SD(count): 1.9 μg/mL in fish water, model control 15, normal control 27, n = 10
Description: Improvement Effect of Walnut Oligopeptide Powder on Inhibition of Zebra Fish Macrophages […] Meanwhile, model control group and normal control group were set (no treatment was carried out), in which 30 tail zebra fishes were in each experimental group, and each group was placed in a 28 L incubator to be cultured. When processing to 3 dpf, the zebra fishes in each experiment group were subjected to neutral red staining. After dyeing for 4 hours, 10-tail zebra fishes from each experimental group were selected to be observed under microscope randomly, and photos were taken and stored. Image analysis for the number of the zebra fish macrophages was carried out by image processing software. The improvement effect of the walnut oligopeptide powder on inhibition of the zebra fish macrophage was quantitatively evaluated.

[4] = system: Sodium Nitrite-Induced Memory Consolidation Disorder of Mice; experiment: Sodium nitrite-induced memory consolidation disorder of mice (jumping table); type: in vivo, ICR mouse; settings: sodium nitrite model, 30 mg/kg
Description: (§1) The test animal was a cleaning-grade ICR mouse with 18-22 g in weight, the three batches of 300 were provided by Nantong University. Laboratory animal production license is SCXK (Su) 2014-0001, fed by conventional mouse feedstuff, and free drinking water. Before the experiment they were fed in a quiet environment for 1 week, freely-feeding and drinking water, and keeping the room temperature (22±1° C.) and natural day and night rhythm illumination. The mouse was randomly grouped and low, medium and high dosage groups (30, 100 and 300 mg/kg) of walnut oligopeptide (preparation example 1) was provided, the blank group and the model group were given equal-volume distilled water respectively, and 30 mg/kg of nimodipine was administrated in positive control group, respectively filling the stomach for one time every day in each group, and continuously feeding the medicines for 7 days. Jump-table training. […] During testing, the mouse were placed on the jumping table, and time was counted at the same time. The first jumping time of the mouse was recorded, and it was an electric shock incubation period (namely, an error incubation period) and recording the times of jumping within 5 minutes (i.e., the times of errors), was recorded as observation index. […]

[5] = system: Scopolamine-Induced Memory Acquisition Impairment of the Mice; experiment: Scopolamine-induced memory acquisition impairment of mice (jumping table); type: in vivo, ICR mouse; settings: scopolamine model, 30 mg/kg
Description: 1. Test Animal The test animal was a cleaning-grade ICR mouse with 18-22 g in weight, the three batches of 300 were provided by Nantong University. Laboratory animal production license is SCXK (Su) 2014-0001, fed by conventional mouse feedstuff, and free drinking water. Before the experiment they were fed in a quiet environment for 1 week, freely-feeding and drinking water, and keeping the room temperature (22±1° C.) and natural day and night rhythm illumination. 2.1 Influence on Scopolamine-Induced Memory Acquisition Impairment of Mouse The mouse was randomly grouped and low, medium and high dosage groups (30, 100 and 300 mg/kg) of walnut oligopeptide (preparation example 1) was provided, the blank group and the model group were given equal-volume distilled water respectively, and 30 mg/kg of nimodipine was administrated in positive control group, respectively filling the stomach for one time every day in each group, and continuously feeding the medicines for 7 days. Jump-table training. […] During testing, the mouse were placed on the jumping table, and time was counted at the same time. The first jumping time of the mouse was recorded, and it was an electric shock incubation period (namely, an error incubation period) and recording the times of jumping within 5 minutes (i.e., the times of errors), was recorded as observation index.

[6] = system: 40% Ethanol-Induced Memory Reproduction Disorder of Mice; experiment: 40% ethanol-induced memory reproduction disorder of mice (jumping table); type: in vivo, ICR mouse; settings: 40% ethanol model, 30 mg/kg
Description: as §1

H2O2 induced PC12 cell = experiment: Protection of PC12 cells against hydrogen peroxide damage (MTT); type: cell-based; settings: 80 μg/ml, 6 hours pre-culture, then 100 μM H2O2 12 hours; model group 57.2
Description: PC12 nerve cell protection model: This is a good model for studying nerve cell physiology, pathology and pharmacology, and also a most common in-vitro drug screening model for studying Parkinson's disease and neuro-fatigue.
PC12 cells were cultured by using a high-sugar DMEM culture medium containing 10% fetal calf serum, and digesting for about 50 seconds by using 0.25% of pancreatin during cell passage, stopping digestion by using a DMEM culture medium containing 10% serum, and adding fresh culture medium to blow the cells uniformly. Cell density passage of 10^5/ml was carried out. 4 ml of culture solution containing cells was added to each bottle of cells, culturing under the conditions of 37° C. and 5% CO2. […]
The 96-well plate was respectively given to 100 μL of the walnut oligopeptide by a certain concentration gradient in each hole, after culturing for 24 hours, the cell vitality was detected by MTT method. […] The cell activity of the model group and the drug delivery group was calculated by taking the average value of the OD value of the control group as 100% of the cell activity. […]
The above groups were cultured under the same conditions, and then subsequent experiments were carried out. The cell activity was detected by MTT method in 96-well plates.

With `O=C1CC[C@@H](C(=O)N2CSC[C@H]2C(=O)O)N1` [pidotimod] ([pGlu]-[Thz]-OH) the “Promotion Effect (time)” value (zebra fish macrophages [1]; compared with model control group) was 2.3 time and the “number of macrophages of the phagocytosis ink, Mean ± SD(count)” value (zebra fish macrophages [1]; model control 1.5, n = 10) was 3.5 count and 3.5 ± 1.8 count.

In the case of `N[C@@H](CCC(=O)N[C@@H](CS)C(=O)NCC(=O)O)C(=O)O` [GSH, glutathione], the “Protection Effect on Central Nervous System (%)” value [2] was 92% and the “fluorescence intensity of central apoptosis cell (pixel)(mean ± SE)” value ([2]; 24 hours co-treatment with mycophenolate, model 565783, normal 161976) was 190000 pixel and 193900 ± 8302 pixel.

With `COc1ccc2cc3[n+](cc2c1OC)CCc1cc2c(cc1-3)OCO2` [Berberine, berberine] the “number of macrophages of the zebra fish head, Mean ± SD(count)” value (zebra fish macrophages [3]) was 20 ± 4 count, the “number of macrophages of the zebra fish head, Mean ± SD(count)” value (zebra fish macrophages [3]; listed as berberine) was 20 count and the “Improvement Effect (%)” value (zebra fish macrophages [3]; 1.9 μg/mL, compared with model control group) was 41.67%.

`COCCOC(=O)C1=C(C)NC(C)=C(C(=O)OC(C)C)C1c1cccc([N+](=O)[O-])c1` (centres unmarked) [Nimodipine, nimodipine] was tested, and the “Incubation Period” value ([4]; gavage once daily 7 days, n = 10, model 94.7) was 237.7 ± 79.7 s, the “Times of Error (n)” value ([4]; within 5 minutes, model 3.6) was 1.0 ± 1.2 n and the “Incubation Period” value ([5]; gavage once daily 7 days, n = 10, model 14.6) was 35.9 ± 30.3 s. The “Times of Error (n)” value ([5]; within 5 minutes, model 3.5) was 2.0 ± 1.4 n, the “Incubation Period” value ([6]; gavage once daily 7 days, n = 8, model 46.3) was 99.6 ± 98.7 s and the “Times of Error (n)” value ([6]; within 5 minutes, model 5.7) was 2.5 ± 1.4 n.

For `CC(=O)N[C@@H](CS)C(=O)O` [Positive group, NAC], the “Cell activity(%)” value (H2O2 induced PC12 cell) was 88.0%.
